Measured values from US4296107A, “Mildiomycin analogs and a method of production” (Takeda Chemical Industries, Ltd., priority 1979, dated 1981).
≈ marks a conversion by molar mass, not a printed value. Where two headings read alike, the source gives them in different places.

What was measured:
[1] = system: Penicillium chrysogenum IFO 4626; test: Antimicrobial spectrum, agar dilution method (in vitro); type: cell-based; conditions: IFO4626, medium A, 28 °C, 40 hr, read-out: Minimal inhibitory concentration
[2] = system: Sclerotinia sclerotiorum IFO 9395; test: as above; type: cell-based; conditions: IFO9395, medium A, 28 °C, 40 hr, read-out: Minimal inhibitory concentration
[3] = system: Guignardia laricina IFO 7886; test: as above; type: cell-based; conditions: Neofusicoccum laricinum, IFO7886; medium A, 28 °C, 88 hr; read-out: Minimal inhibitory concentration
[4] = system: Saccharomyces cerevisiae IFO 0209; test: as above; type: cell-based; conditions: IFO0209, medium A, 28 °C, 40 hr, read-out: Minimal inhibitory concentration
[5] = system: Rhodotorula rubra IFO 0870; test: as above; type: cell-based; conditions: IFO0870, medium A, 28 °C, 40 hr, read-out: Minimal inhibitory concentration
[6] = system: Bacillus subtilis IFO 3513; test: as above; type: cell-based; conditions: IFO3513, medium B, 37 °C, 20 hr, read-out: Minimal inhibitory concentration
Description: (§1) B 0.5% of Ehrlich's meat extract, 0.5% of polypeptone, 0.5% of NaCl, 1.5%

[7] = system: Escherichia coli IFO 12734; test: as above; type: cell-based; conditions: IFO12734, medium B, 37 °C, 20 hr, read-out: Minimal inhibitory concentration
Description: as §1

[8] = system: Proteus vulgaris IFO 3045; test: as above; type: cell-based; conditions: IFO3045, medium B, 37 °C, 20 hr, read-out: Minimal inhibitory concentration
Description: as §1

[9] = system: Mycobacterium phlei IFO 3158; test: as above; type: cell-based; conditions: Mycolicibacterium phlei, IFO3158; medium C, 37 °C, 40 hr; read-out: Minimal inhibitory concentration
Description: (§2) C 3.0% of glycerin, 0.5% of Ehrlich's meat extract, 0.5% of NaCl, 1.5% of […]

[10] = system: Mycobacterium smegmatis ATCC 607; test: as above; type: cell-based; conditions: Mycolicibacterium smegmatis, ATCC607; medium C, 37 °C, 40 hr; read-out: Minimal inhibitory concentration
Description: as §2

[11] = system: fungi of late blight of tomato; type: in vivo; conditions: tomato plants in pots, 4 days, nontreated group taken as 100%
[12] = system: powdery mildew of barley; test: Controlling effect against powdery mildew of barley (method of Iwasa et al.); type: in vivo; conditions: in words
Description: The controlling effect against powdery mildew of barley was investigated according to the method of Iwasa, et. al. (The Journal of Antibiotics, vol. 31, No. 6, pp. 512, 1978).

[13] = system: Totranychus urticae; test: Miticidal effect on kidney bean seedlings; type: in vivo; conditions: 500 ppm, 28 °C, 20 ml per pot
Experimental: The test on the miticidal effect was carried out. The seedlings (5 days after germination) of kidney bean grown in pots (9 cm in diameter) were inoculated on their main leaves with about 50 female adults of Totranychus urticae, and the test chemical solution was sprayed in 20 ml quantities per pot by means of a spray gun. After spraying, the pots were placed in a phytotron (28° C.), and a number of surving mites on leaves was investigated at the 5th and 7th day to determine a decrease rate against a number of mites immediately before spraying [=(number of mites tested-number of surving mites)/(number of mites tested)×100].

[14] = Solubilities; type: physicochemical; conditions: free base
[15] = in vivo; conditions: mouse
[16] = system: Cochlioborus miyabeanus IFO 5277; test: Antimicrobial spectrum, agar dilution method (in vitro); conditions: 40 h, read-out: Minimal inhibitory concentration
[17] = system: some bacteria; test: Antimicrobial spectrum, agar dilution method (in vitro), summary in words; type: cell-based

Compound | MIC [1] [µg/mL] | MIC [2] [µg/mL] | MIC [3] [µg/mL] | MIC [4] [µg/mL] | MIC [5] [µg/mL] | MIC [6] [µg/mL] | MIC [7] [µg/mL] | MIC [8] [µg/mL] | MIC [9] [µg/mL] | MIC [10] [µg/mL] | Percent area of lesions ([11]; 150 ppm) [%] | Percent area of lesions ([11]; 200 ppm) [%] | Percent area of lesions ([11]; 250 ppm) [%] | Percent area of lesions ([11]; 300 ppm) [%] | Percent area of lesions ([11]; 500 ppm) [%] | controlling effect against powdery mildew of barley [12] | Decrease rate against number of mites immediately before spraying, 5th day [13] | Decrease rate against number of mites immediately before spraying, 7th day [13] | solubility in organic solvents [14] | solubility in water [14] | other results
N=C(N)NCC(O)CC(O)(C(=O)O)C1OC(n2ccc(N)nc2=O)C=CC1NC(=O)C(N)CO (stereo not shown) [Example 2] | 250 (≈ 516 µM) | 250 (≈ 516 µM) | 250 (≈ 516 µM) | 100 (≈ 206 µM) | < 10 | 250 (≈ 516 µM) | 250 (≈ 516 µM) | > 500 | 50 (≈ 103 µM) | 100 (≈ 206 µM) | 55 | 0 | 0 | 0 | 0 | greatly effective | 100 | 100 | less soluble | Easily soluble | LD50 ([15]; ip): > 200 mg/kg; LD50 ([15]; iv): > 100 mg/kg; LD50 ([15]; sc): > 200 mg/kg; MIC [16]: 100 µg/mL (≈ 206 µM)
N=C(N)NCC(O)CC(O)(C(=O)O)C1OC(n2cc(Br)c(N)nc2=O)C=CC1NC(=O)C(N)CO (stereo not shown) [Example 5] | 250 (≈ 444 µM) | 500 (≈ 888 µM) | 250 (≈ 444 µM) | 100 (≈ 178 µM) | < 10 | 250 (≈ 444 µM) | 100 (≈ 178 µM) | 250 (≈ 444 µM) | 25 (≈ 44.4 µM) | 25 (≈ 44.4 µM) | 100 | 11 | 0 | 0 | 0 | greatly effective | 100 | 100 | less soluble | Easily soluble | antimicrobial activity against some bacteria [17]: remarkably strong antimicrobial activity; LD50 ([15]; ip): > 200 mg/kg; LD50 ([15]; iv): > 100 mg/kg; LD50 ([15]; sc): > 200 mg/kg; MIC [16]: 100 µg/mL (≈ 178 µM)
Cc1cn(C2C=CC(NC(=O)C(N)CO)C(C(O)(CC(O)CNC(=N)N)C(=O)O)O2)c(=O)nc1N (stereo not shown) [Example 6] | 250 (≈ 502 µM) | 250 (≈ 502 µM) | 250 (≈ 502 µM) | 100 (≈ 201 µM) | < 10 | 250 (≈ 502 µM) | 250 (≈ 502 µM) | > 500 | 50 (≈ 100 µM) | 100 (≈ 201 µM) | 100 | 17 | 0 | 0 | 0 | greatly effective | 100 | 100 | less soluble | Easily soluble | LD50 ([15]; ip): > 200 mg/kg; LD50 ([15]; iv): > 100 mg/kg; LD50 ([15]; sc): > 200 mg/kg; MIC [16]: 100 µg/mL (≈ 201 µM)
N=C(N)NCC(O)CC(O)(C(=O)O)C1OC(n2cc(F)c(N)nc2=O)C=CC1NC(=O)C(N)CO (stereo not shown) [Example 7] | 250 (≈ 498 µM) | 250 (≈ 498 µM) | 250 (≈ 498 µM) | 100 (≈ 199 µM) | < 10 | 250 (≈ 498 µM) | 250 (≈ 498 µM) | > 500 | 25 (≈ 49.8 µM) | 100 (≈ 199 µM) | 100 | 16 | 0 | 0 | 0 | greatly effective | 100 | 100 | less soluble | Easily soluble | LD50 ([15]; ip): > 200 mg/kg; LD50 ([15]; iv): > 100 mg/kg; LD50 ([15]; sc): > 200 mg/kg; MIC [16]: 100 µg/mL (≈ 199 µM)
